Experimental data published in patent US20160304959A1, “COMPOSITIONS AND METHODS FOR TREATING DIABETIC NEPHROPATHY” (Rush University Medical Center, priority 2013, published 2016).

Columns and labels:
[1] = test system: DN prone miR-146a KO animals; assay: STZ-induced diabetic nephropathy in miR-146a KO animals, albuminuria; type: in vivo, mouse; settings: miR-146a KO + STZ mice, 70 mg/kg I.P. daily from 4 weeks post-STZ
Method: We investigated the role of miR-146 in diabetic nephropathy (DN) using the miR-146a KO animals and a DN mouse model. Streptozotocin (STZ) treatment (125 mg/kg, two doses 3 days apart) induced similar levels of hyperglycemia in both WT and miR146a KO animals (FIG. 7).
To determine if inhibiting ErbB4 using ErbB4 erlotinib would be beneficial and protect animals from DN, we administered Erlotinib (70 mg/kg in saline/Kolliphor, Tween, I.P., daily) in DN prone miR-146a KO animals starting at 4 weeks post-STZ.

[2] = test system: WT and miR-146a KO DN mice; assay: TEM of kidney sections for podocyte foot process effacement after STZ; type: in vivo, mouse
Method: We also analyzed the kidney sections using transmission electron microscopy (TEM) to determine if erlotinib treatment provided protection of podocytes from foot process effacement. TEM was performed according to the standard protocols (Sever, S. et al. J Clin. Invest. 117, 2095-2104 (2007)).

[3] = molecular target: ErbB4 (Homo sapiens, UniProt Q15303); settings: cited from earlier work; for Affinity and selectivity for ErbB4 versus EGFR: pan-ErbB inhibitors; for Inhibition of ErbB4 (affinity): ref. 77 for JNJ
Chain of ErbB4 (Q15303 26-1308): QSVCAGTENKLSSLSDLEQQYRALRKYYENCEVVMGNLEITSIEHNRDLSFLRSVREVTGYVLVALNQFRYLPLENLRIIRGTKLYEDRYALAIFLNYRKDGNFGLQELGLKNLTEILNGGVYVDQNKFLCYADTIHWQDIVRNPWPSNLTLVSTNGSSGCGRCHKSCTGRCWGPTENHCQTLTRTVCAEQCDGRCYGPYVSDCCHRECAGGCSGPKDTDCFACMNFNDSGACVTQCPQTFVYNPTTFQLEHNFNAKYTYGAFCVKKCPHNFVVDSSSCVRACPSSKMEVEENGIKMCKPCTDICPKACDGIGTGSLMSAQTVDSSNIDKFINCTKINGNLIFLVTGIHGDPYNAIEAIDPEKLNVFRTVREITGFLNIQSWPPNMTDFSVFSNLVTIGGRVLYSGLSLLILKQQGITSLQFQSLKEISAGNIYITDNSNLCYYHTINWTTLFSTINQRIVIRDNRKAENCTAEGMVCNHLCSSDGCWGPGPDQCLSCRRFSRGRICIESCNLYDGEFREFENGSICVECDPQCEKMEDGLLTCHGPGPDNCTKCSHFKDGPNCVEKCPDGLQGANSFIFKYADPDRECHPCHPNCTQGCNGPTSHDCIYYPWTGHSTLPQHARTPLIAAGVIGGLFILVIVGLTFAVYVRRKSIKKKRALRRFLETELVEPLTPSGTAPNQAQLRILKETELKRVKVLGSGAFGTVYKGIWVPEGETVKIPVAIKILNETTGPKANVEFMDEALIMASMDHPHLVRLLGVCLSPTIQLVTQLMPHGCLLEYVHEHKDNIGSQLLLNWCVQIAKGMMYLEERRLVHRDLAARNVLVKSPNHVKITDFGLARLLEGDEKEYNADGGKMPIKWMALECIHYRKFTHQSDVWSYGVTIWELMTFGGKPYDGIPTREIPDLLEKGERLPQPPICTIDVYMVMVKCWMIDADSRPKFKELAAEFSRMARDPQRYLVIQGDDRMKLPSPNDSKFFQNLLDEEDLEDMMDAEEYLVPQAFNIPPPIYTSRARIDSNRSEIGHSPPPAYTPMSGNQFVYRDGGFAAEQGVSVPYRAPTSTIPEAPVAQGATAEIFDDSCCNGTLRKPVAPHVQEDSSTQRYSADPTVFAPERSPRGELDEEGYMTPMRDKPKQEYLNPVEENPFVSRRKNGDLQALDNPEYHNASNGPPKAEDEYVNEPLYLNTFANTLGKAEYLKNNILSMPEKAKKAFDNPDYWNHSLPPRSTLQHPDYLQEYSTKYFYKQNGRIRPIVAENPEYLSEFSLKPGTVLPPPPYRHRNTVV

[4] = test system: podocytes; assay: Podocytes treated with TGFβ and co-treated with ErbB4 inhibitor (qRT-PCR, immunofluorescence); type: cell-based, mouse; settings: podocytes treated with TGFb plus inhibitor, 2 h
Method: FIG. 5A is a bar graph showing qRT-PCR based analysis of levels of various RNAs in podocytes cultured in normal glucose (5 mM) v/s treatment with HG (30 mM) for 2 h or 24 h (Notch-1). FIG. 5B is a bar graph showing qRT-PCR based analysis of levels of various RNAs in podocytes cultured in normal media or treated with TGFb in the absence or presence of ErbB4 inhibitor (JNJ) for 2 h. FIG. 5C provides representative immunofluorescence images showing podocytes cultured in normal media or treated with TGFb in the absence or presence of ErbB4 inhibitor (JNJ) for 2 h and stained for paxillin, synpo or ErbB4.

| Structure (SMILES) | Proteinuria (albuminuria) [1] | Podocyte foot process effacement (TEM) ([2]; WT mice after STZ) | Podocyte foot process effacement (TEM) ([2]; miR-146a KO DN mice) | Affinity and selectivity for ErbB4 versus EGFR [3] | Reversal of deleterious expression changes induced by TGFβ (mRNA and protein level) [4] | Inhibition of ErbB4 (affinity) [3] |
| --- | --- | --- | --- | --- | --- | --- |
| C#Cc1cccc(Nc2ncnc3cc(OCCOC)c(OCCOC)cc23)c1 [Erlotinib] | significantly reduced proteinuria (albuminuria) | significantly reduced podocyte foot process effacement | significantly reduced podocyte foot process effacement | high affinity and selectivity for ErbB4 | – | – |
| Cl.Nc1ncnc(Nc2ccc(OCc3ccccc3)c(Cl)c2)c1/C=N/OCCN1CCOCC1 [JNJ28871063] | – | – | – | high affinity and selectivity for ErbB4 | reversed the deleterious expression changes induced by TGFβ | nanomolar affinity |
| CS(=O)(=O)CCNCc1ccc(-c2ccc3ncnc(Nc4ccc(OCc5cccc(F)c5)c(Cl)c4)c3c2)o1 [Lapatinib] | – | – | – | much more effective against EGFR v/s ErbB4 | less effective | only weakly effective on ErbB4 |
| CNc1cc2c(Nc3cccc(Br)c3)ncnc2cn1 [PD158780] | – | – | – | high affinity and selectivity for ErbB4 | – | – |
